Test results reported in patent US10385070B2, “Chroman-spirocyclic piperidine amides as modulators of ion channels” (VERTEX PHARMACEUTICALS INCORPORATED, priority 2011, dated 2019).
pIC50: −log10 of the molar value.

Target: human NaV subtype, like NaV 1.7 (Homo sapiens, UniProt Q15858)
Experiment: E-VIPR optical membrane potential assay with electrical stimulation
Type: cell-based
Settings: active against one or more sodium channels; assay and NaV subtype not specified for Table 3; read-out: IC50 Binned Activity Data
From the text: Assays for Detecting and Measuring NaV Inhibition Properties of Compound E-VIPR Optical Membrane Potential Assay Method with Electrical Stimulation
Sodium channels are voltage-dependent proteins that can be activated by inducing membrane voltage changes by applying electric fields. The electrical stimulation instrument and methods of use are described in Ion Channel Assay Methods PCT/US01/21652, herein incorporated by reference and are referred to as E-VIPR. The instrument comprises a microtiter plate handler, an optical system for exciting the coumarin dye while simultaneously recording the coumarin and oxonol emissions, a waveform generator, a current- or voltage-controlled amplifier, and a device for inserting electrodes in well. Under integrated computer control, this instrument passes user-programmed electrical stimulus protocols to cells within the wells of the microtiter plate.
24 hours before the assay on E-VIPR, HEK cells expressing human NaV subtype, like NaV 1.7, are seeded in 384-well poly-lysine coated plates at 15,000-20,000 cells per well. Other subtypes are performed in an analogous mode in a cell line expressing the NaV of interest. HEK cells are grown in media (exact composition is specific to each cell type and NaV subtype) supplemented with 10% FBS (Fetal Bovine Serum, qualified; GibcoBRL #16140-071) and 1% Pen-Strep (Penicillin-Streptomycin; GibcoBRL #15140-122). Cells are grown in vented cap flasks, in 90% humidity and 10% CO2, to 100% confluence. They are usually split by trypsinization 1:10 or 1:20, depending on scheduling needs, and grown for 2-3 days before the next split.
100 mg/mL Pluronic F-127 (Sigma #P2443), in dry DMSO
Compound Plates: 384-well round bottom plate, e.g. Corning 384-well Polypropylene Round Bottom #3656
Cell Plates: 384-well tissue culture treated plate, e.g. Greiner #781091-1B
Bath1 buffer. Glucose 10 mM (1.8 g/L), Magnesium Chloride (Anhydrous), 1 mM (0.095 g/L), Calcium Chloride, 2 mM (0.222 g/L), HEPES 10 mM (2.38 g/L), Potassium Chloride, 4.5 mM (0.335 g/L), Sodium Chloride 160 mM (9.35 g/L).
Hexyl Dye Solution: Bath1 Buffer+0.5% β-cyclodextrin (make this prior to use, Sigma #C4767), 8 μM CC2-DMPE+2.5 μM DiSBAC6(3). To make the solution Add volume of 10% Pluronic F127 stock equal to volumes of CC2-DMPE+DiSBAC6(3). The order of preparation is first mix Pluronic and CC2-DMPE, then add DiSBAC6(3) while vortexing, then add Bath1+β-Cyclodextrin.
1) Pre-spot compounds (in neat DMSO) into compound plates. Vehicle control (neat DMSO), the positive control (20 mM DMSO stock tetracaine, 125 μM final in assay) and test compounds are added to each well at 160× desired final concentration in neat DMSO. Final compound plate volume will be 80 μL (80-fold intermediate dilution from 1 μL DMSO spot; 160-fold final dilution after transfer to cell plate). Final DMSO concentration for all wells in assay is 0.625%.
2) Prepare Hexyl Dye Solution.
3) Prepare cell plates. On the day of the assay, medium is aspirated and cells are washed three times with 100 μL of Bath1 Solution, maintaining 25 μL residual volume in each well.
4) Dispense 25 μL per well of Hexyl Dye Solution into cell plates. Incubate for 20-35 minutes at room temp or ambient conditions.
5) Dispense 80 μL per well of Bath1 into compound plates. Acid Yellow-17 (1 mM) is added and Potassium Chloride can be altered from 4.5 to 20 mM depending on the NaV subtype and assay sensitivity.
6) Wash cell plates three times with 100 μL per well of Bath1, leaving 25 μL of residual volume. Then transfer 25 uL per well from Compound Plates to Cell Plates. Incubate for 20-35 minutes at room temp/ambient condition
7) Read Plate on E-VIPR. Use the current-controlled amplifier to deliver stimulation wave pulses for typically 9 seconds and a scan rate of 400 Hz. A pre-stimulus recording is performed for 0.5 seconds to obtain the un-stimulated intensities baseline. […]

human NaV subtype, like NaV 1.7, sequence (Q15858 whole entry): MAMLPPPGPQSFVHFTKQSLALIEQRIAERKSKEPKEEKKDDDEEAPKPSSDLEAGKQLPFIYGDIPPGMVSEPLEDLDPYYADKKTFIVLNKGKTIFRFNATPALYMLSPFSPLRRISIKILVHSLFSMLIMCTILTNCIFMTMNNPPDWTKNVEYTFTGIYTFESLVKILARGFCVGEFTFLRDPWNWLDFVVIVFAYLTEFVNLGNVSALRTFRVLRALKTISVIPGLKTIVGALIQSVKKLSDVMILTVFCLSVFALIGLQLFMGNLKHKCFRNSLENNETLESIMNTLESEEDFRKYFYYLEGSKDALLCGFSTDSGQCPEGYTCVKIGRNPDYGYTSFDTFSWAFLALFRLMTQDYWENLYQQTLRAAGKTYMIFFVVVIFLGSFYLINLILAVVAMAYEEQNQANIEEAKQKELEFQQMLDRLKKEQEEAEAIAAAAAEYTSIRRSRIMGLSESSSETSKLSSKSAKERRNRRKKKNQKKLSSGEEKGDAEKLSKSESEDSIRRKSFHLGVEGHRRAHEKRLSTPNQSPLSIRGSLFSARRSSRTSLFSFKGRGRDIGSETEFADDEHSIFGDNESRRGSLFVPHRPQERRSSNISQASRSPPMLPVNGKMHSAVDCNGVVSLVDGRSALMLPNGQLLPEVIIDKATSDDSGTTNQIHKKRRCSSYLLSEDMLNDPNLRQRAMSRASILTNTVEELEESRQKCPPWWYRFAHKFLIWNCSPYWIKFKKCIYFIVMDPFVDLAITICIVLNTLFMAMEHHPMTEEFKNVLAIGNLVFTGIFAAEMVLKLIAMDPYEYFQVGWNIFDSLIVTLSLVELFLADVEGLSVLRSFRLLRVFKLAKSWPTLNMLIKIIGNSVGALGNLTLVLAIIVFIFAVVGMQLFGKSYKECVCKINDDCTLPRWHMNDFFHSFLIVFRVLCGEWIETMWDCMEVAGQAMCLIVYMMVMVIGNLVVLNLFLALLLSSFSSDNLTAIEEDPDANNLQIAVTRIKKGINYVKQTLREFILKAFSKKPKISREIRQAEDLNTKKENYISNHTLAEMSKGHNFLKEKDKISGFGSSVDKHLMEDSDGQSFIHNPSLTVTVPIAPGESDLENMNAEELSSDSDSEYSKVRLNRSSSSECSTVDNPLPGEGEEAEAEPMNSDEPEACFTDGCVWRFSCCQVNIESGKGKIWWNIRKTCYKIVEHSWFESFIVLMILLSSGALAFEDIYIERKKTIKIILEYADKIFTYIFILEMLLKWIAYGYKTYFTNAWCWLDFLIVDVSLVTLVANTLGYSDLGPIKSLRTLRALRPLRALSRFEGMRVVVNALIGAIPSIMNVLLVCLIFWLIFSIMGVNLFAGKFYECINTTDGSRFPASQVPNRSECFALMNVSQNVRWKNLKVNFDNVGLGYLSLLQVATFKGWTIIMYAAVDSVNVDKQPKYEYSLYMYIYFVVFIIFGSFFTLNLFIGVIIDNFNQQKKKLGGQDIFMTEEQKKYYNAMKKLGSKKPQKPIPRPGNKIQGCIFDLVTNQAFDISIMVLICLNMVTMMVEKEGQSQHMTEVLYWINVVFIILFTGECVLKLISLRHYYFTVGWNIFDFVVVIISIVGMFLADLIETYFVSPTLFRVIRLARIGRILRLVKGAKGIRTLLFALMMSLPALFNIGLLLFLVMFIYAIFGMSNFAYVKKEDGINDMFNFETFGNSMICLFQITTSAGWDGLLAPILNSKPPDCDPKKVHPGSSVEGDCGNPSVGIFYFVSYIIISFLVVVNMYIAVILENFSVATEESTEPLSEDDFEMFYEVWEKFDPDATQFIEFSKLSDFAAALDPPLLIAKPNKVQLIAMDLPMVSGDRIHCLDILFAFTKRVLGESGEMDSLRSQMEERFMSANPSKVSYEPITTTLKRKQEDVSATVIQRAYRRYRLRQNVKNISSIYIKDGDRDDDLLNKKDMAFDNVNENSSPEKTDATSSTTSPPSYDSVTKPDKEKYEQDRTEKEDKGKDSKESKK

pIC50	SMILES
≥ 5.70	Cc1nc(C(=O)N2CCC3(CC2)C[C@H](OC(C)C)c2ccccc2O3)ccc1OC(C)C [Compound 107]
≥ 5.70	CC(C)OCC1CC2(CCN(C(=O)c3ccc(OC(C)C)c(CO)c3)CC2)Oc2ccccc21 (centres unmarked) [Compound 108]
< 5.30	COc1cc(C(=O)N2CCC3(CC2)CC(OC)c2ccccc2S3(=O)=O)ccc1OC(C)C (centres unmarked) [Compound 109]
≥ 5.70	CC(C)O[C@@H]1CC2(CCN(C(=O)c3ccc(S(=O)(=O)C(F)F)cc3)CC2)Oc2ccc(F)cc21 [Compound 110]
< 5.30	CCc1ccc(C(=O)N2CCC3(CC2)C[C@@H](OC(C)C)c2cc(F)ccc2O3)nc1 [Compound 111]
≥ 5.70	CC(C)Oc1ccc(C(=O)N2CCC3(CC2)C[C@@H](OC(C)C)c2cc(F)ccc2O3)cc1F [Compound 112]
≥ 5.70	COc1ccccc1C(=O)N1CCC2(CC1)CC(OC)c1ccccc1O2 (centres unmarked) [Compound 113]
≥ 5.70	COc1cc(C(=O)N2CCC3(CC2)C[C@@H](OC(C)C)c2ccccc2O3)ccc1OC(C)C [Compound 114]
5.30 to 5.70	CC(C)O[C@H]1CC2(CCN(C(=O)c3ccc(C(C)(C)O)cc3)CC2)Oc2ccccc21 [Compound 115]
5.30 to 5.70	COc1cc(C(=O)N2CCC3(CC2)C[C@@H](OC(C)C)c2ccccc2O3)ccc1OCCCO [Compound 116]
≥ 5.70	COc1cc(C(=O)N2CCC3(CC2)C[C@@H](OC(C)C)c2cc(F)ccc2O3)ccc1OCCO [Compound 117]
≥ 5.70	CC(C)OC1CC2(CCN(C(=O)c3ccc(C(C)(C)O)c(F)c3)CC2)Oc2cc(F)ccc21 (centres unmarked) [Compound 118]
≥ 5.70	CC(C)OC1CC2(CCN(C(=O)c3ccc(S(=O)(=O)C(C)C)cc3)CC2)Oc2ccccc21 (centres unmarked) [Compound 119]
≥ 5.70	COc1cc(C(=O)N2CCC3(CC2)C[C@@H](OC(C)C)c2cc(F)ccc2O3)ccc1C(C)(C)CO [Compound 120]
< 5.30	CCO[C@@H]1CC2(CCN(C(=O)c3ccc(S(=O)(=O)C(F)F)cc3)CC2)Oc2ccc(F)cc21 [Compound 121]
≥ 5.70	Cc1cc(C(=O)N2CCC3(CC2)C[C@@H](O)c2cc(F)ccc2O3)ccc1OC(C)C [Compound 122]
5.30 to 5.70	CC(C)O[C@H]1CC2(CCN(C(=O)c3ccc4c(cnn4C)c3)CC2)Oc2ccccc21 [Compound 123]
< 5.30	CC(C)Oc1ccc(C(=O)N2CCC3(CC2)C[C@@H](OC(C)C)c2ccccc2O3)cn1 [Compound 124]
≥ 5.70	CCOc1ccc(C(=O)N2CCC3(CC2)C[C@@H](OC(C)C)c2ccccc2O3)cc1F [Compound 125]
≥ 5.70	CCc1ccc(C(=O)N2CCC3(CC2)C[C@@H](OC(C)C)c2cc(F)ccc2O3)cc1OC [Compound 126]
≥ 5.70	COc1cc(C(=O)N2CCC3(CC2)CC(OC2CC2)c2ccccc2O3)ccc1OC(C)C (centres unmarked) [Compound 127]
≥ 5.70	COc1cc(C(=O)N2CCC3(CC2)CC(OC(C)(C)C)c2ccccc2O3)ccc1OC(C)C (centres unmarked) [Compound 128]
5.30 to 5.70	CCOc1ccc(C(=O)N2CCC3(CC2)C[C@@H](OC(C)C)c2cc(F)ccc2O3)nc1 [Compound 129]
5.30 to 5.70	CC(C)O[C@@H]1CC2(CCN(C(=O)c3ccc(C(C)(C)O)c(F)c3)CC2)Oc2cc(F)ccc21 [Compound 130]
≥ 5.70	CC(C)O[C@@H]1CC2(CCN(C(=O)c3ccccc3OC(F)(F)F)CC2)Oc2ccc(F)cc21 [Compound 131]
≥ 5.70	CC1CCCN(c2ccc(C(=O)N3CCC4(CC3)C[C@@H](OC(C)C)c3cc(F)ccc3O4)nc2)C1 (some centres unmarked) [Compound 132]
≥ 5.70	COc1ccc(C(=O)N2CCC3(CC2)C[C@H](OC(C)C)c2ccccc2O3)cc1C [Compound 133]

pIC50	SMILES
≥ 5.70	Cc1cc(C(=O)N2CCC3(CC2)C[C@@H](O)c2cc(F)ccc2O3)ccc1C(C)(C)O [Compound 134]
≥ 5.70	COCOC1Cc2ccccc2OC12CCN(C(=O)c1ccc(OC(C)C)c(OC)c1)CC2 (centres unmarked) [Compound 135]
≥ 5.70	COc1cc(C(=O)N2CCC3(CC2)C[C@@H](OC(C)C)c2ccccc2O3)ccc1O [Compound 136]
≥ 5.70	CC(C)O[C@@H]1CC2(CCN(C(=O)c3ccc4c(cnn4C)c3)CC2)Oc2ccccc21 [Compound 137]
≥ 5.70	Cc1cc(C(=O)N2CCC3(CC2)CC(O)c2c(F)cccc2O3)ccc1OC(C)C (centres unmarked) [Compound 138]
≥ 5.70	CC(C)Oc1ccc(C(=O)N2CCC3(CC2)C[C@@H](OC(C)C)c2cc(F)ccc2O3)nc1 [Compound 139]
≥ 5.70	CC(C)Oc1ccc(C(=O)N2CCC3(CC2)C[C@@H](OC(C)C)c2ccccc2O3)cc1F [Compound 140]
≥ 5.70	Cc1cc(C(=O)N2CCC3(CC2)CC(OC(C)C)c2ccccc2O3)ccc1OC(C)C (centres unmarked) [Compound 141]
≥ 5.70	COc1cc(C(=O)N2CCC3(CC2)CC(OC)c2ccccc2O3)ccc1OC(C)C (centres unmarked) [Compound 142]
≥ 5.70	COc1cc(C(=O)N2CCC3(CC2)CC(Cn2cccn2)c2ccccc2O3)ccc1OC(C)C (centres unmarked) [Compound 143]
≥ 5.70	COc1cc(O)ccc1C(=O)N1CCC2(CC1)C[C@H](OC(C)C)c1ccccc1O2 [Compound 144]
≥ 5.70	COc1cc(C(=O)N2CCC3(CC2)CC(Oc2cccnc2)c2ccccc2O3)ccc1OC(C)C (centres unmarked) [Compound 145]
≥ 5.70	COc1cc(C(=O)N2CCC3(CC2)C[C@@H](OC(C)C)c2cc(F)ccc2O3)ccc1OC(C)C [Compound 146]
≥ 5.70	CC(C)CS(=O)(=O)c1ccc(C(=O)N2CCC3(CC2)C[C@@H](OC(C)C)c2cc(F)ccc2O3)cc1 [Compound 147]
≥ 5.70	CC(C)Oc1ccc(C(=O)N2CCC3(CC2)C[C@@H](OC(C)C)c2cc(F)ccc2O3)cc1CO [Compound 148]
≥ 5.70	Cc1cc(C(=O)N2CCC3(CC2)C[C@H](OC(C)C)c2ccccc2O3)ccc1O [Compound 149]
≥ 5.70	COc1cc(C(=O)N2CCC3(CC2)CC(OC(C)C)c2ccccc2O3)ccc1OC(C)C (centres unmarked) [Compound 150]
≥ 5.70	COc1cc(C(=O)N2CCC3(CC2)Oc2ccccc2C(OC(C)C)C3(C)C)ccc1OC(C)C (centres unmarked) [Compound 151]
≥ 5.70	COc1cc(C(=O)N2CCC3(CC2)CC(Oc2ccccc2C#N)c2ccccc2O3)ccc1OC(C)C (centres unmarked) [Compound 152]
5.30 to 5.70	CC(C)O[C@@H]1CC2(CCN(C(=O)c3ccc(S(=O)(=O)C(C)C)cc3)CC2)Oc2c(F)cc(F)cc21 [Compound 153]
≥ 5.70	CC(C)O[C@H]1CC2(CCN(C(=O)c3ccc(C(C)(C)O)c(F)c3)CC2)Oc2cc(F)ccc21 [Compound 154]
≥ 5.70	COc1cc(C(=O)N2CCC3(CC2)C[C@@H](OC(C)C)c2cc(F)ccc2O3)ccc1O[C@@H]1CCOC1 [Compound 155]
≥ 5.70	Cc1cc(C(=O)N2CCC3(CC2)C[C@@H](OC(C)C)c2cc(F)ccc2O3)ccc1S(C)(=O)=O [Compound 156]
≥ 5.70	CC(C)OC1CC2(CCN(C(=O)c3ccccc3OC(F)(F)F)CC2)Oc2ccccc21 (centres unmarked) [Compound 157]
≥ 5.70	COc1cc(C(=O)N2CCC3(CC2)CC(OCC2CC2)c2ccccc2O3)ccc1OC(C)C (centres unmarked) [Compound 158]
≥ 5.70	Cc1cc(C(F)F)n2ncc(C(=O)N3CCC4(CC3)C[C@H](OC(C)C)c3ccccc3O4)c2n1 [Compound 159]
